In patent publication US9469650B2, “Melampomagnolide B derivatives” (BOARD OF TRUSTEES OF THE UNIVERSITY OF ARKANSAS, priority 2013, dated 2016):

Columns and labels:
MOLT-4 = test: panel of 60 human tumor cell lines, growth inhibition (Leukemia); conditions: MOLT-4
MDA-MB-435 = test: panel of 60 human tumor cell lines, growth inhibition (Melanoma); conditions: MDA-MB-435
SK-MEL-5 = test: as above; conditions: 8K-MEL-5
SF-539 = test: panel of 60 human tumor cell lines, growth inhibition (CNS Cancer); conditions: SF-539
SNB-19 = test: as above; conditions: SNB-19
HCC-2998 = test: panel of 60 human tumor cell lines, growth inhibition (Colon Cancer); conditions: HCC-2998
HCT-15 = test: as above; conditions: HCT-15
ACHN = test: panel of 60 human tumor cell lines, growth inhibition (Renal Cancer)
RXF 393 = test: as above; conditions: RXF 393
UO-31 = test: as above; conditions: UO-31
MCF7 = test: panel of 60 human tumor cell lines, growth inhibition (Breast Cancer); conditions: MCF7
BT-549 = test: as above; conditions: BT-549
T-47D = test: as above; conditions: T-47D
IGROV1 = test: panel of 60 human tumor cell lines, growth inhibition (Ovarian Cancer); conditions: IGROVI
SK-OV-3 = test: as above; conditions: SK-OV-3
HOP-92 = test: panel of 60 human tumor cell lines, growth inhibition (Non-Small Cell Lung Cancer); conditions: HOP-92
NCI-H23 = test: as above; conditions: NCI-H23
NCI-H322M = test: as above
NCI-H460 = test: as above; conditions: NCI-H460

C=C1C(=O)O[C@H]2[C@H]1CC/C(COC(=O)NCCO)=C\CC[C@@]1(C)O[C@@H]21 [JVM 2-50]
Percent Growth (MOLT-4; Log10 Concentration −4.0): −39% | Percent Growth (MOLT-4; Log10 Concentration −5.0): 43% | Percent Growth (MOLT-4; Log10 Concentration −6.0): 103% | Percent Growth (MOLT-4; Log10 Concentration −7.0): 114% | Percent Growth (MOLT-4; Log10 Concentration −8.0): 106% | GI50 (MOLT-4; NCI five dose): 7.65 µM | Percent Growth (MDA-MB-435; Log10 Concentration −4.0): −84% | Percent Growth (MDA-MB-435; Log10 Concentration −5.0): 40% | Percent Growth (MDA-MB-435; Log10 Concentration −6.0): 91% | Percent Growth (MDA-MB-435; Log10 Concentration −7.0): 96% | Percent Growth (MDA-MB-435; Log10 Concentration −8.0): 91% | GI50 (MDA-MB-435; NCI five dose): 6.37 µM | TGI (MDA-MB-435; NCI five dose): 2.10E−5 | Percent Growth (SK-MEL-5; Log10 Concentration −4.0): −34% | Percent Growth (SK-MEL-5; Log10 Concentration −5.0): 84% | Percent Growth (SK-MEL-5; Log10 Concentration −6.0): 100% | Percent Growth (SK-MEL-5; Log10 Concentration −7.0): 100% | Percent Growth (SK-MEL-5; Log10 Concentration −8.0): 102% | GI50 (SK-MEL-5; NCI five dose): 19.5 µM | TGI (SK-MEL-5; NCI five dose): 5.15E−5 | Percent Growth (SF-539; Log10 Concentration −4.0): −85% | Percent Growth (SF-539; Log10 Concentration −5.0): 54% | Percent Growth (SF-539; Log10 Concentration −6.0): 93% | Percent Growth (SF-539; Log10 Concentration −7.0): 95% | Percent Growth (SF-539; Log10 Concentration −8.0): 95% | GI50 (SF-539; NCI five dose): 10.8 µM | TGI (SF-539; NCI five dose): 2.46E−5 | Percent Growth (SNB-19; Log10 Concentration −4.0): 19% | Percent Growth (SNB-19; Log10 Concentration −5.0): 84% | Percent Growth (SNB-19; Log10 Concentration −6.0): 95% | Percent Growth (SNB-19; Log10 Concentration −7.0): 93% | Percent Growth (SNB-19; Log10 Concentration −8.0): 99% | GI50 (SNB-19; NCI five dose): 32.6 µM | TGI (SNB-19; NCI five dose): >1.00E−4 | Percent Growth (HCC-2998; Log10 Concentration −4.0): −70% | Percent Growth (HCC-2998; Log10 Concentration −5.0): 105% | Percent Growth (HCC-2998; Log10 Concentration −6.0): 136% | Percent Growth (HCC-2998; Log10 Concentration −7.0): 106% | Percent Growth (HCC-2998; Log10 Concentration −8.0): 98% | GI50 (HCC-2998; NCI five dose): 20.6 µM | TGI (HCC-2998; NCI five dose): 3.99E−5 | Percent Growth (HCT-15; Log10 Concentration −4.0): −71% | Percent Growth (HCT-15; Log10 Concentration −5.0): 16% | Percent Growth (HCT-15; Log10 Concentration −6.0): 94% | Percent Growth (HCT-15; Log10 Concentration −7.0): 95% | Percent Growth (HCT-15; Log10 Concentration −8.0): 93% | GI50 (HCT-15; NCI five dose): 3.7 µM | TGI (HCT-15; NCI five dose): 1.54E−5 | Percent Growth (ACHN; Log10 Concentration −4.0): 84% | Percent Growth (ACHN; Log10 Concentration −5.0): 43% | Percent Growth (ACHN; Log10 Concentration −6.0): 99% | Percent Growth (ACHN; Log10 Concentration −7.0): 101% | Percent Growth (ACHN; Log10 Concentration −8.0): 96% | GI50 (ACHN; NCI five dose): 7.44 µM | TGI (ACHN; NCI five dose): 2.52E−5 | Percent Growth (RXF 393; Log10 Concentration −4.0): −68% | Percent Growth (RXF 393; Log10 Concentration −5.0): 20% | Percent Growth (RXF 393; Log10 Concentration −6.0): 98% | Percent Growth (RXF 393; Log10 Concentration −7.0): 93% | Percent Growth (RXF 393; Log10 Concentration −8.0): 91% | GI50 (RXF 393; NCI five dose): 4.14 µM | TGI (RXF 393; NCI five dose): 1.69E−5 | Percent Growth (UO-31; Log10 Concentration −4.0): −65% | Percent Growth (UO-31; Log10 Concentration −5.0): 67% | Percent Growth (UO-31; Log10 Concentration −6.0): 96% | Percent Growth (UO-31; Log10 Concentration −7.0): 99% | Percent Growth (UO-31; Log10 Concentration −8.0): 95% | GI50 (UO-31; NCI five dose): 13.5 µM | TGI (UO-31; NCI five dose): 3.23E−5 | Percent Growth (MCF7; Log10 Concentration −4.0): −59% | Percent Growth (MCF7; Log10 Concentration −5.0): 16% | Percent Growth (MCF7; Log10 Concentration −6.0): 84% | Percent Growth (MCF7; Log10 Concentration −7.0): 89% | Percent Growth (MCF7; Log10 Concentration −8.0): 87% | GI50 (MCF7; NCI five dose): 3.16 µM | TGI (MCF7; NCI five dose): 1.61E−5 | Percent Growth (BT-549; Log10 Concentration −4.0): −91% | Percent Growth (BT-549; Log10 Concentration −5.0): 21% | Percent Growth (BT-549; Log10 Concentration −6.0): 83% | Percent Growth (BT-549; Log10 Concentration −7.0): 91% | Percent Growth (BT-549; Log10 Concentration −8.0): 85% | GI50 (BT-549; NCI five dose): 3.26 µM | TGI (BT-549; NCI five dose): 1.53E−5 | Percent Growth (T-47D; Log10 Concentration −4.0): −54% | Percent Growth (T-47D; Log10 Concentration −5.0): 16% | Percent Growth (T-47D; Log10 Concentration −6.0): 69% | Percent Growth (T-47D; Log10 Concentration −7.0): 95% | Percent Growth (T-47D; Log10 Concentration −8.0): 89% | GI50 (T-47D; NCI five dose): 3.46 µM | TGI (T-47D; NCI five dose): 1.71E−5 | Percent Growth (IGROV1; Log10 Concentration −4.0): −36% | Percent Growth (IGROV1; Log10 Concentration −5.0): 49% | Percent Growth (IGROV1; Log10 Concentration −6.0): 109% | Percent Growth (IGROV1; Log10 Concentration −7.0): 106% | Percent Growth (IGROV1; Log10 Concentration −8.0): 95% | GI50 (IGROV1; NCI five dose): 9.79 µM | TGI (IGROV1; NCI five dose): 1.80E−5 | Percent Growth (SK-OV-3; Log10 Concentration −4.0): 23% | Percent Growth (SK-OV-3; Log10 Concentration −5.0): 106% | Percent Growth (SK-OV-3; Log10 Concentration −6.0): 103% | Percent Growth (SK-OV-3; Log10 Concentration −7.0): 103% | Percent Growth (SK-OV-3; Log10 Concentration −8.0): 92% | GI50 (SK-OV-3; NCI five dose): 47 µM | TGI (SK-OV-3; NCI five dose): >1.00E−4 | Percent Growth (HOP-92; Log10 Concentration −4.0): −88% | Percent Growth (HOP-92; Log10 Concentration −5.0): 13% | Percent Growth (HOP-92; Log10 Concentration −6.0): 94% | Percent Growth (HOP-92; Log10 Concentration −7.0): 86% | Percent Growth (HOP-92; Log10 Concentration −8.0): 90% | GI50 (HOP-92; NCI five dose): 3.49 µM | TGI (HOP-92; NCI five dose): 1.35E−5 | Percent Growth (NCI-H23; Log10 Concentration −4.0): −53% | Percent Growth (NCI-H23; Log10 Concentration −5.0): 67% | Percent Growth (NCI-H23; Log10 Concentration −6.0): 100% | Percent Growth (NCI-H23; Log10 Concentration −7.0): 102% | Percent Growth (NCI-H23; Log10 Concentration −8.0): 98% | GI50 (NCI-H23; NCI five dose): 13.8 µM | TGI (NCI-H23; NCI five dose): 3.61E−5 | Percent Growth (NCI-H322M; Log10 Concentration −4.0): 32% | Percent Growth (NCI-H322M; Log10 Concentration −5.0): 109% | Percent Growth (NCI-H322M; Log10 Concentration −6.0): 105% | Percent Growth (NCI-H322M; Log10 Concentration −7.0): 109% | Percent Growth (NCI-H322M; Log10 Concentration −8.0): 105% | GI50 (NCI-H322M; NCI five dose): 58.8 µM | TGI (NCI-H322M; NCI five dose): >1.00E−4 | Percent Growth (NCI-H460; Log10 Concentration −4.0): 8% | Percent Growth (NCI-H460; Log10 Concentration −5.0): 98% | Percent Growth (NCI-H460; Log10 Concentration −6.0): 98% | Percent Growth (NCI-H460; Log10 Concentration −7.0): 100% | Percent Growth (NCI-H460; Log10 Concentration −8.0): 100% | GI50 (NCI-H460; NCI five dose): 34 µM | TGI (NCI-H460; NCI five dose): >1.00E−4
